Reference: ChEMBL document CHEMBL1145302, “Synthesis and antibacterial activity of C6-carbazate ketolides” (2006)
≈ marks a conversion by molar mass, not a printed value.

Columns and labels:
Assay type in all cases: functional
Haemophilus influenzae = test: Antibacterial activity against telithromycin-susceptible Haemophilus influenzae ATCC 49766
[1] = test system: Staphylococcus haemolyticus; test: Antibacterial activity against erythromycin resistant Staphylococcus haemolyticus OC3882 containing erm(C)
Staphylococcus aureus [2] = test: Antibacterial activity against erythromycin-susceptible Staphylococcus aureus Smith OC4172 in presence of 50% mouse serum
Staphylococcus aureus [3] = test: Antibacterial activity against erythromycin-susceptible Staphylococcus aureus Smith OC4172
Streptococcus pneumoniae [4] = test: Antibacterial activity against erythromycin-resistant Streptococcus pneumoniae OC4051 containing erm(B)
Streptococcus pneumoniae [5] = test: Antibacterial activity against erythromycin-susceptible Streptococcus pneumoniae OC9132
Streptococcus pneumoniae [6] = test: Antibacterial activity against erythromycin-resistant Streptococcus pneumoniae OC4421 containing mef(A)
Staphylococcus aureus [7] = test: Antibacterial activity against Staphylococcus aureus Smith infected in orally dosed Swiss Webster mouse septicemia model; conditions: po
Staphylococcus aureus [8] = test: Antibacterial activity against Staphylococcus aureus Smith infected in sc dosed Swiss Webster mouse septicemia model

| SMILES | MIC (Haemophilus influenzae) | MIC [1] | MIC (Staphylococcus aureus [2]) | MIC (Staphylococcus aureus [3]) | MIC (Streptococcus pneumoniae [4]) | MIC (Streptococcus pneumoniae [5]) | MIC (Streptococcus pneumoniae [6]) | ED50 (Staphylococcus aureus [7]) | ED50 (Staphylococcus aureus [8]) |
| --- | --- | --- | --- | --- | --- | --- | --- | --- | --- |
| CC[C@H]1OC(=O)[C@H](C)C(=O)[C@H](C)[C@@H](O[C@@H]2O[C@H](C)C[C@H](N(C)C)[C@H]2O)[C@](C)(OC(=O)NNCCc2ccc(-c3cnccn3)cc2)C[C@@H](C)C(=O)[C@H](C)[C@H]2NC(=O)O[C@@]21C | 2 µg/mL (≈ 2.38 µM) | 0.25 µg/mL (≈ 0.298 µM) | 0.5 µg/mL | 0.25 µg/mL (≈ 0.298 µM) | 0.06 µg/mL (≈ 0.0715 µM) | 0.03 µg/mL (≈ 0.0358 µM) | 0.25 µg/mL (≈ 0.298 µM) | – | – |
| CC[C@H]1OC(=O)[C@H](C)C(=O)[C@H](C)[C@@H](O[C@@H]2O[C@H](C)C[C@H](N(C)C)[C@H]2O)[C@](C)(OC(=O)NN(C)CCc2ccc(-c3ncco3)cc2)C[C@@H](C)C(=O)[C@H](C)[C@H]2NC(=O)O[C@@]21C | 2 µg/mL (≈ 2.38 µM) | 0.5 µg/mL (≈ 0.594 µM) | 0.5 µg/mL | 0.25 µg/mL (≈ 0.297 µM) | 0.06 µg/mL (≈ 0.0713 µM) | 0.03 µg/mL (≈ 0.0356 µM) | 0.12 µg/mL (≈ 0.143 µM) | – | – |
| CC[C@H]1OC(=O)[C@H](C)C(=O)[C@H](C)[C@@H](O[C@@H]2O[C@H](C)C[C@H](N(C)C)[C@H]2O)[C@](C)(OC(=O)N(C)N(C)CCc2ccc(-c3cnccn3)cc2)C[C@@H](C)C(=O)[C@H](C)[C@H]2NC(=O)O[C@@]21C | 16 µg/mL (≈ 18.5 µM) | 8 µg/mL (≈ 9.23 µM) | 4 µg/mL | 2 µg/mL (≈ 2.31 µM) | 0.5 µg/mL (≈ 0.577 µM) | 0.06 µg/mL (≈ 0.0692 µM) | 0.5 µg/mL (≈ 0.577 µM) | – | – |
| CC[C@H]1OC(=O)[C@H](C)C(=O)[C@H](C)[C@@H](O[C@@H]2O[C@H](C)C[C@H](N(C)C)[C@H]2O)[C@](C)(OC(=O)NNCCc2ccc(-c3ncccn3)cc2)C[C@@H](C)C(=O)[C@H](C)[C@H]2NC(=O)O[C@@]21C | 4 µg/mL (≈ 4.77 µM) | 0.25 µg/mL (≈ 0.298 µM) | 0.25 µg/mL | 0.25 µg/mL (≈ 0.298 µM) | 0.12 µg/mL (≈ 0.143 µM) | 0.03 µg/mL (≈ 0.0358 µM) | 0.12 µg/mL (≈ 0.143 µM) | – | – |
| CC[C@H]1OC(=O)[C@H](C)C(=O)[C@H](C)[C@@H](O[C@@H]2O[C@H](C)C[C@H](N(C)C)[C@H]2O)[C@](C)(OC(=O)NN(C)CCc2ccc(-c3ncccn3)s2)C[C@@H](C)C(=O)[C@H](C)[C@H]2NC(=O)O[C@@]21C | 2 µg/mL (≈ 2.33 µM) | 0.25 µg/mL (≈ 0.291 µM) | 0.5 µg/mL | 0.25 µg/mL (≈ 0.291 µM) | 0.06 µg/mL (≈ 0.0698 µM) | 0.03 µg/mL (≈ 0.0349 µM) | 0.12 µg/mL (≈ 0.14 µM) | > 20 mg/kg | 4.8 mg/kg |
| CC[C@H]1OC(=O)[C@H](C)C(=O)[C@H](C)[C@@H](O[C@@H]2O[C@H](C)C[C@H](N(C)C)[C@H]2O)[C@](C)(OC(=O)NN(C)Cc2ccc(-c3ncccn3)cc2)C[C@@H](C)C(=O)[C@H](C)[C@H]2NC(=O)O[C@@]21C | 4 µg/mL (≈ 4.77 µM) | 2 µg/mL (≈ 2.38 µM) | 8 µg/mL | 2 µg/mL (≈ 2.38 µM) | 0.5 µg/mL (≈ 0.596 µM) | 0.06 µg/mL (≈ 0.0715 µM) | 1 µg/mL (≈ 1.19 µM) | – | – |
| CC[C@H]1OC(=O)[C@H](C)C(=O)[C@H](C)[C@@H](O[C@@H]2O[C@H](C)C[C@H](N(C)C)[C@H]2O)[C@](C)(OC(=O)NN(C)CCc2ccc(-c3ncccn3)cc2)C[C@@H](C)C(=O)[C@H](C)[C@H]2NC(=O)O[C@@]21C | 4 µg/mL (≈ 4.69 µM) | 0.5 µg/mL (≈ 0.586 µM) | 0.5 µg/mL | 0.25 µg/mL (≈ 0.293 µM) | 0.06 µg/mL (≈ 0.0703 µM) | 0.03 µg/mL (≈ 0.0352 µM) | 0.25 µg/mL (≈ 0.293 µM) | > 20 mg/kg | 3.3 mg/kg |
| CC[C@H]1OC(=O)[C@H](C)C(=O)[C@H](C)[C@@H](O[C@@H]2O[C@H](C)C[C@H](N(C)C)[C@H]2O)[C@](C)(OC(=O)NN)C[C@@H](C)C(=O)[C@H](C)[C@H]2NC(=O)O[C@@]21C | 8 µg/mL (≈ 12.2 µM) | 16 µg/mL (≈ 24.4 µM) | 2 µg/mL | 8 µg/mL (≈ 12.2 µM) | 8 µg/mL (≈ 12.2 µM) | 0.5 µg/mL (≈ 0.761 µM) | 8 µg/mL (≈ 12.2 µM) | – | – |
| CC[C@H]1OC(=O)[C@H](C)[C@@H](O[C@H]2C[C@@](C)(OC)[C@@H](O)[C@H](C)O2)[C@H](C)[C@@H](O[C@@H]2O[C@H](C)C[C@H](N(C)C)[C@H]2O)[C@](C)(O)C[C@@H](C)C(=O)[C@H](C)[C@@H](O)[C@]1(C)O [ERYTHROMYCIN] | 8 µg/mL (≈ 10.9 µM) | > 16 µg/mL | 0.06 µg/mL | 1 µg/mL (≈ 1.36 µM) | > 16 µg/mL | 0.06 µg/mL (≈ 0.0818 µM) | 4 µg/mL (≈ 5.45 µM) | – | – |
| CC[C@H]1OC(=O)[C@H](C)C(=O)[C@H](C)[C@@H](O[C@@H]2O[C@H](C)C[C@H](N(C)C)[C@H]2O)[C@](C)(OC)C[C@@H](C)C(=O)[C@H](C)[C@H]2N(CCCCn3cnc(-c4cccnc4)c3)C(=O)O[C@]12C [TELITHROMYCIN] | 1 µg/mL (≈ 1.23 µM) | 0.25 µg/mL (≈ 0.308 µM) | 0.5 µg/mL | 0.25 µg/mL (≈ 0.308 µM) | 0.06 µg/mL (≈ 0.0739 µM) | 0.06 µg/mL (≈ 0.0739 µM) | 0.12 µg/mL (≈ 0.148 µM) | > 20 mg/kg | 4.3 mg/kg |
